One test concerns the target T1, GPIIb-IIIa (Homo sapiens, UniProt P05106+P08514).
T1 construct: Purified platelet GPIIb-IIIa receptor was prepared as described by Fitzgerald; from tissue; host or cells: platelets
T1 sequence (P08514 32-887 limits assumed): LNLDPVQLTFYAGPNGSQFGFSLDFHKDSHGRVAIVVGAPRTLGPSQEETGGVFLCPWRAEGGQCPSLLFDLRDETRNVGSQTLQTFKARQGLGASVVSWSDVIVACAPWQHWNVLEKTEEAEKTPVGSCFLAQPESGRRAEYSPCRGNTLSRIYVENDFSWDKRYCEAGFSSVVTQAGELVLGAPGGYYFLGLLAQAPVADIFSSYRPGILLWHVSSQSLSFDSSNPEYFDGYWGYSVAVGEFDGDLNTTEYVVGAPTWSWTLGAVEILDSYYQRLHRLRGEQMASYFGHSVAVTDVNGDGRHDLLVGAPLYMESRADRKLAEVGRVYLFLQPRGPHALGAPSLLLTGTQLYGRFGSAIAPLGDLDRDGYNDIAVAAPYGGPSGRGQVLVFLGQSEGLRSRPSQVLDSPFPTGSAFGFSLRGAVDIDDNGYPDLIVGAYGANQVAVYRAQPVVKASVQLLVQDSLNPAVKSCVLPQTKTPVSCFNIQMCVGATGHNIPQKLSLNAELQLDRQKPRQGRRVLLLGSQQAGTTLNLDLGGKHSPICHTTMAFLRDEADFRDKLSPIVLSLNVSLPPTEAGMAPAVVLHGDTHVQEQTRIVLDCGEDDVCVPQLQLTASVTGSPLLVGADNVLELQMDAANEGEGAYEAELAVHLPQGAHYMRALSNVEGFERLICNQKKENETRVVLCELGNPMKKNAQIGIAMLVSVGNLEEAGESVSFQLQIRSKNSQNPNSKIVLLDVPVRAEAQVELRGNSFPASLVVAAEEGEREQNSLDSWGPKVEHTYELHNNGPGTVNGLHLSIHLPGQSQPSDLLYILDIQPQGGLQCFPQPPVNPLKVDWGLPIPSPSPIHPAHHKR
T1 sequence (P05106 27-788): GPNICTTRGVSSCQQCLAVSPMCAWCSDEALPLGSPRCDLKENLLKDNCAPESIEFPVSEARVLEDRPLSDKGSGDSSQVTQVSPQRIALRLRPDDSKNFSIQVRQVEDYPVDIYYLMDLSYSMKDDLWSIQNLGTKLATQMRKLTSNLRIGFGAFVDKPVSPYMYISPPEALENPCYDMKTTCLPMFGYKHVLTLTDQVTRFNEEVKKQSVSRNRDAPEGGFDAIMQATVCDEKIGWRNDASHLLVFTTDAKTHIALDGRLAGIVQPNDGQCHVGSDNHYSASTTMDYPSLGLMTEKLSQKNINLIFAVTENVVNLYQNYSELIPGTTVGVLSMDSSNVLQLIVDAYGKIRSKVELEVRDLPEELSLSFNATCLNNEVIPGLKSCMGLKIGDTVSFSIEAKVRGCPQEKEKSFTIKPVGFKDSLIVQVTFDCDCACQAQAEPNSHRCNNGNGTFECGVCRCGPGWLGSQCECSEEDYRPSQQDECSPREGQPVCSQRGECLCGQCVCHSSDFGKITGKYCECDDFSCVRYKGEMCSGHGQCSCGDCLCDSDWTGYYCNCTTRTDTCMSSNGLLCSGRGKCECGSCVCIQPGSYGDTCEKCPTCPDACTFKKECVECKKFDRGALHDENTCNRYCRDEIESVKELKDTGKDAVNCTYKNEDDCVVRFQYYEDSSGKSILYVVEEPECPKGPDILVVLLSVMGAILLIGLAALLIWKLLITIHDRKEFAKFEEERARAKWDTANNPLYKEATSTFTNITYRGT
Kind of test: ELISA IIb-IIIa assay (fibrinogen binding to immobilized GPIIb-IIIa). The conditions noted are these: purified platelet GPIIb-IIIa receptor coated on ELISA plates; biotin-labeled fibrinogen 10 nM, 3 hours at 25° C. The procedure: In the following assay, GPIIb-IIIa is prepared in purified form, by a method such as described by Fitzgerald, L. A., et al., Anal Biochem (1985) 151:169-177, (the disclosure of which is incorporated herein by reference). GPIIb-IIIa is coated onto microtiter plates. The coated support is then contacted with fibrinogen and with the test material (e.g., compounds of Formula I) and incubated for a sufficient time to permit maximal binding of fibrinogen to the immobilized GPIIb-IIIa. Fibrinogen is typically provided at a concentration of about 5-50 nM and the test material can, if desired, be added at a series of dilution. Typical incubations are 2 to 4 hours at 25° C., the time and temperature being interdependent.
After incubation, the solution containing the fibrinogen and test material is removed and the level of binding of fibrinogen measured by quantitating bound fibrinogen to GPIIb-IIIa. Any suitable means of detection may be used, but it is convenient to employ labeled fibrinogen, for example using biotinylated labels. Such methods are well known in the art.
Purified platelet GPIIb-IIIa receptor was prepared as described by Fitzgerald, L. A., et al., Anal Biochem (1985) 151:169-177 (1985). Vitronectin receptor was prepared as described by Smith, J. W., J. Biol Chem (1988) 263:18726-18731. After purification, the receptors were stored in 0.1% Triton X-100 at 0.1-1.0 mg/ml.
The receptors were coated to the wells of 96-well flat-bottom ELISA plates (Linbro EIA-Plus microtiter plate, Flow Laboratories) after diluting 1:200 with a solution of 20 mM Tris-HCl, 150 mM NaCl, 1 mM CaCl2, pH 7.4, to reduce the Triton X-100 concentration to below its critical micellar concentration and adding an aliquot of 100 ul to each well. The wells were all allowed to incubate overnight at 4° C., and then aspirated to dryness. Additional sites were blocked by the addition of bovine serum albumin (BSA) at 35 mg/ml in the above buffer for 2 hours at 30° C. to prevent nonspecific binding. The wells were then washed once with binding buffer ([…] Tris-HCl, 100 mM NaCl 2 mM CaCl2, 1 mg/ml BSA).
The corresponding ligands (fibrinogen, von Willebrand Factor, or vitronectin) were conjugated to biotin using commercially available reagents and standard protocols. The labeled ligands were added to the receptor-coated wells at final concentration of 10 nM (100 ul/well) and incubated for 3 hours at 25° C. in the presence or absence of the test samples. After incubation, the wells are aspirated to dryness and bound ligand is quantitated.
The bound protein is detected by the addition of antibiotin antibody conjugated to alkaline phosphatase followed by addition of substrate (p-nitrophenyl phosphate), and determination of the optical density of each well at […]. Decreased color development is observed in wells incubated with test samples which inhibit binding of ligand to receptor.
(In general: In an ELISA, binding on a coated surface is turned into a signal by an enzyme label.)

In test [1] the test system is human platelet-rich plasma. Kind of test: Platelet aggregation assay (Aggregation-Human PRP/ADP). Conditions: 1 min; human platelet-rich plasma incubated with compound 1 minute at 37° C.; ADP-induced aggregation; read-out: Agg: Human PRP/ADP IC50uM. The class given is cell-based. In a few lines: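 Citrated human PRP (~200-400,000 platelets/μl) from healthy volunteers, stirred, incubated with compound 1 min at 37° C. Aggregation was then triggered, most often by ADP 5 μM, or by 1 μg/ml collagen, 1 μM U46619 or 0.3 μM platelet activating factor, and read in an aggregometer with platelet-poor plasma as reference.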

Counter-ions that a name gives are not always drawn.

Take `N=C(N)c1cccc(CCc2ccc3c(c2)CCN(CC(=O)O)C3=O)c1` [Example 18, 6-[2-[3-(Aminoiminomethyl)phenyl]ethyl]-3,4-dihydro-1-oxo-2(1H)-isoquinoline Acetic Acid Trifluoroacetate]: the IC50 at GPIIb-IIIa was 11 µM; in test [1], above 100 µM.
The corresponding values for `N=C(N)c1ccc(C(=O)Nc2ccc3c(c2)CCC(CC(=O)O)C3=O)c(Cl)c1` (racemic) [Example 63, rac-(6-(N-(4-Aminoiminomethyl-2-chlorobenzoyl)amino)-1-oxo-1,2,3,4-tetrahydronaphthalen-2-yl)acetic Acid] are 0.0094 µM and 0.092 µM.
Turning to `N=C(N)c1ccc(COc2ccc3c(c2)CCN(C(CC(=O)O)c2ccccc2)C3=O)cc1` (racemic) [Example 16, (+−)-6-[[4-(Aminoiminomethyl)phenyl]methoxy]-3,4-dihydro-1-oxo-b-phenyl-(1H)-isoquinoline Propanoic Acid Trifluoroacetate], the IC50 on GPIIb-IIIa was 0.007 µM; in test [1], 0.2 µM.
The like results for `N=C(N)c1ccc(COc2ccc3c(c2)CCC(CC(=O)O)C3)cc1` (racemic) [Example 20, (+−)-6-[[(4-Aminoimidomethyl)phenyl]methoxy]-1,2,3,4-tetrahydronapthylene-2-acetic Acid Trifluoroacetate] were, in that order, 0.3 µM and 20 µM.
On to `N=C(NCc1ccccc1)c1ccc(C(=O)Nc2ccc3c(c2)CCC(CC(=O)O)O3)cc1` (racemic) [Example 93, rac-(3,4-Dihydro-6-(N-(4-(N′-(phenylmethylamino)iminomethyl)benzoyl)amino)-2H-1-benzopyran-2-yl)acetic Acid], for which the IC50 at GPIIb-IIIa was found to be 0.0094 µM; in test [1] it was 0.086 µM.
Regarding `O=C(O)COC1CCc2cc(OCCCC3CCNCC3)ccc2C1` (centres unmarked) [Example 24], the results for the IC50 (on GPIIb-IIIa; in test [1]) were 0.76 µM and 6.5 µM, respectively.
`N=C(N)c1ccc(C(=O)Nc2ccc3c(c2)CCC(/C=C/C(=O)O)C3)cc1` (centres unmarked) [Example 37]: the IC50 stood at 0.1 µM on GPIIb-IIIa and 4.4 µM in test [1].
With `N=C(N)c1ccc(C(=O)Nc2ccc3c(c2)CCC(CC(=O)O)O3)cc1` (racemic) [Example 48, rac-(6-(N-(4-(Aminoiminomethyl)benzoyl)amino)-3,4-dihydro-2H-1-benzopyran-2-yl)acetic Acid], the IC50 turned out to be 0.004 µM on GPIIb-IIIa and 0.066 µM in test [1].
The corresponding values for `CCNC(=N)c1ccc(C(=O)Nc2ccc3c(c2)CCC(CC(=O)O)O3)cc1` (racemic) [Example 72, rac-(3,4-Dihydro-6-(N-(4-((ethylamino)iminomethyl)benzoyl)amino)-2H-1-benzopyran-2-yl)acetic Acid] are 0.0185 µM and 0.28 µM.
The like results for `N=C(N)c1ccc(CNC(=O)c2ccc3c(c2)CCN(CC(=O)O)C3=O)cc1` [Example 19, 6-[[(4-Aminoiminomethyl)phenyl]methylaminocarbonyl]-3,4-dihydro-1-oxo-2(1H)isoquinoline Acetic Acid Trifluoroacetate] were, in that order, 13 µM and above 100 µM.
For the compound `CC1(CCC(=O)O)C=Cc2cc(OCc3ccc(C(=N)N)cc3)ccc2O1` (racemic) [Example 53, rac-3-(6-(4-(Aminoiminomethyl)phenylmethoxy)-2-methyl-2H-1-benzopyran-2-yl)propanoic Acid Hydrochloride], the IC50 at GPIIb-IIIa worked out at 0.72 µM; in test [1], 21 µM.
In the case of `COc1ccc(CCNC(=O)C(CC(=O)O)N2CCc3cc(OCc4ccc(C(=N)N)cc4)ccc3C2=O)cc1` (racemic) [Example 7, (+−)-6-[[4-(Aminoiminomethyl)phenyl]methoxy]-3,4-dihydro-1-oxo-beta-[[(4-methoxyphenyl Ethyl)amino]carbonyl]-2(1H)-isoquinoline Propanoic Acid Trifluoroacetate], the figures for the IC50 (at GPIIb-IIIa; in test [1]) were 0.015 µM and 2 µM, respectively.
The corresponding values for `CCOC(=O)CCC1(C)CCc2cc(NC(=O)c3ccc(C(=N)N)cc3)ccc2O1` (racemic) [Example 50, Ethyl rac-3-(6-(N-(4-(Aminoiminomethyl)benzoyl)amino)-3,4-dihydro-2-methyl-2H-1-benzopyran-2-yl)propanoate Hydrochloride] are 3.93 µM and 100 µM.
In the case of `N=C(N)c1ccc(C(=O)Nc2ccc3c(c2)CCC(CC(=O)O)O3)c(F)c1` (racemic) [Example 70, rac-(6-(N-(4-(Aminoiminomethyl)-2-fluorobenzoyl)amino)-3,4-dihydro-2H-1-benzopyran-2-yl)acetic Acid], the IC50 at GPIIb-IIIa was 0.0013 µM; in test [1], 0.082 µM.
In the case of `CCOC(=O)CC1CCc2cc(NC(=O)c3ccc(C(=N)N)cc3F)ccc2O1` (racemic) [Example 69, Ethyl rac-(6-(N-(4-(Aminoiminomethyl)-2-fluorobenzoyl)amino)-3,4-dihydro-2H-1-benzopyran-2-yl)acetate Hydrochloride], the values for the IC50 (at GPIIb-IIIa; in test [1]) were 0.009 µM and 0.16 µM, respectively.
The like results for `CCCC(CC(=O)O)N1CCc2cc(OCc3ccc(C(=N)N)cc3)ccc2C1=O` (racemic) [Example 15, (+−)-6-[[4-(Aminoiminomethyl)phenyl]methoxy]-3,4-dihydro-1-oxo-b-propyl-2 (1H)-isoquinoline Propanoic Acid Trifluoroacetate] were, in that order, 0.5 µM and 0.23 µM.

For the origin of these results see patent US6448269B1 (Eli Lilly and Company, priority 1993, dated 2002).
